We go through eight compounds from patent US20230039836A1, “AROMATIC SULPHONAMIDES DERIVATIVES THAT INHIBITS PDI A3, THEIR SYNTHESIS AND USE” (Uniwersytet Jagiellonski, priority 2020, published 2023).

Some results are limits rather than exact numbers.

T1 sequence (P07237 18-508, species assumed): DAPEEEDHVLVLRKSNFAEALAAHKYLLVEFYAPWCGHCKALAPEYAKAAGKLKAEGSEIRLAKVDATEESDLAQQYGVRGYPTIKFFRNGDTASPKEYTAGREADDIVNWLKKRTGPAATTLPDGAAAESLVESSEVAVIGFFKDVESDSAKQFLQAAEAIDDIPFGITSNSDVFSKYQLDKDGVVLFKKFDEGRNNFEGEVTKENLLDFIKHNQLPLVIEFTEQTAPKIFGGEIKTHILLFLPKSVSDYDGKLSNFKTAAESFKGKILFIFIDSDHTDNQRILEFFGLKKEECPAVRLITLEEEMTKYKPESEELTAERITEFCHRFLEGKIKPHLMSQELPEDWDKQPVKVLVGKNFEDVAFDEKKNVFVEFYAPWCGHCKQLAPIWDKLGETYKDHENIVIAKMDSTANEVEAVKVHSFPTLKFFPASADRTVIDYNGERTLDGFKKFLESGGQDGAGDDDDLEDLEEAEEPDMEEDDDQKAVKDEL

One data set has as its system Caco-2 (human colon adenocarcinoma). Put plainly: MTT antiproliferative assay, 48 h. The settings on record: 48-hour exposition. It counts as cell-based. The procedure:
(§1) About 2000-4000 cells per well (depending on line nature) were placed in 96-well plates and after 24 h compounds were added to the wells. Untreated cells were used as a control. The plates were incubated for 48 h, 37° C., 5% CO2. The number of surviving cells was determined using 3-(4,5-dimethylthiazol-2-yl)-2,5-diphenyltetrazolinium bromide (MTT). MTT-test: after incubating culture medium was removed and 200 µL fresh medium with 20 µL MTT (2 mg/mL in HBSS) was added in each well of the plate. After incubation (3 hr., 37° C., 5% CO2), the medium with MTT was removed and 200 µL DMSO were added at once to each sample. The samples were tested at 540 nm on Thermo Scientific Multiskan EX microplate photometer. The half-maximal inhibitory concentration (IC50) of each compound was calculated using Graph Pad Prism® 3.0.
Turning to `CN(C)c1ccc2c(S(=O)(=O)N3CC3C(N)=O)cccc2c1` (centres unmarked) [Compound C-3459, 1-[[6-(Dimethylamino)-1-naphthyl]sulfonyl]aziridine-2-carboxamide], the “Cytotoxicity, IC50, µM CaCo-2” value is “n.e”.

The data set is the same for the next values; noted with them: Homo sapiens, Caco-2, 48-hour exposition, read-out: Cytotoxicity, IC50, µM CaCo-2.
Consider `NC(=O)C1CN1S(=O)(=O)c1ccc(N)cc1` (centres unmarked) [Compound C-3218, 1-(4-Aminophenyl)sulfonylaziridine-2-carboxamide], for which the IC50 amounted to 200 ± 1 µM.
Still for that read-out and setting: the value for `COC(=O)C1CN1S(=O)(=O)c1ccc(NC(C)=O)cc1` (centres unmarked) [Compound C-3308, Methyl 1-(4-acetamidophenyl)sulfonylaziridine-2-carboaylate] was 100 ± 5 µM; that for `Cc1ccc(S(=O)(=O)N2CC2C#N)cc1` (centres unmarked) [Compound C-3314, 1-(p-Tolylsulfonyl)aziridine-2-carbonitrile] was 14 ± 0.8 µM.
The same measure, in the same setting: the value for `COC(=O)C1CN1S(=O)(=O)c1ccco1` (centres unmarked) [Compound C-3346, Methyl 1-(2-furylsulfonyl)aziridine-2-carboxylate] was 17 ± 2 µM; that for `COC(=O)C1CN1S(=O)(=O)c1ccc2[nH]c(=O)ccc2c1` (centres unmarked) [Compound C-3350, Methyl 1-[(2-oxo-1H-quinolin-6-yl)sulfonyl]aziridine-2-carboxylate] was 49 ± 5 µM.
Regarding `COC(=O)C1CN1S(=O)(=O)c1ccc2oc(=O)ccc2c1` (centres unmarked) [Compound C-3355, Methyl 1-(2-oxochromen-6-yl)sulfonylaziridine-2-carboxylate], the IC50 is 39 ± 1 µM.
On to `COC(=O)C1CN1S(=O)(=O)c1ccc2c(C=O)c(N(C)C)ccc2c1` (centres unmarked) [Compound C-3390, Methyl 1-[[6-(dimethylamino)-5-formyl-2-naphthyl]sulfonyl]aziridine-2-carboxylate], for which the IC50 was 11 ± 2 µM.

Another data set has as its system MDA-MB-231 (human mammary breast adenocarcinoma). Nature of the data set: MTT antiproliferative assay, 48 h. Format: cell-based. The note with it: 48-hour exposition. The method, then:
as §1
In general terms: Tetrazolium assays rely on reduction of a dye to a coloured formazan, in cell work by metabolically active cells.
Turning to `CN(C)c1ccc2c(S(=O)(=O)N3CC3C(N)=O)cccc2c1` (centres unmarked) [Compound C-3459, 1-[[6-(Dimethylamino)-1-naphthyl]sulfonyl]aziridine-2-carboxamide], the “Cytotoxicity, IC50, µM MDA-MB-231” value is reported as “n.e”.

Still in this data set, the particulars now being: Homo sapiens, MDA-MB-231, 48-hour exposition, read-out: Cytotoxicity, IC50, µM MDA-MB-231.
`NC(=O)C1CN1S(=O)(=O)c1ccc(N)cc1` (centres unmarked) [Compound C-3218, 1-(4-Aminophenyl)sulfonylaziridine-2-carboxamide]: the IC50 was determined as 64 ± 5 µM.
The same measure, in the same setting: the value for `COC(=O)C1CN1S(=O)(=O)c1ccc(NC(C)=O)cc1` (centres unmarked) [Compound C-3308, Methyl 1-(4-acetamidophenyl)sulfonylaziridine-2-carboaylate] was greater than 500 µM.
The same measure, in the same setting: to `Cc1ccc(S(=O)(=O)N2CC2C#N)cc1` (centres unmarked) [Compound C-3314, 1-(p-Tolylsulfonyl)aziridine-2-carbonitrile] belongs 104 ± 3 µM.
On the same count and under the same terms, to `COC(=O)C1CN1S(=O)(=O)c1ccco1` (centres unmarked) [Compound C-3346, Methyl 1-(2-furylsulfonyl)aziridine-2-carboxylate] belongs greater than 200 µM; to `COC(=O)C1CN1S(=O)(=O)c1ccc2[nH]c(=O)ccc2c1` (centres unmarked) [Compound C-3350, Methyl 1-[(2-oxo-1H-quinolin-6-yl)sulfonyl]aziridine-2-carboxylate], 136 ± 6 µM; to `COC(=O)C1CN1S(=O)(=O)c1ccc2oc(=O)ccc2c1` (centres unmarked) [Compound C-3355, Methyl 1-(2-oxochromen-6-yl)sulfonylaziridine-2-carboxylate], 247 ± 14 µM.
`COC(=O)C1CN1S(=O)(=O)c1ccc2c(C=O)c(N(C)C)ccc2c1` (centres unmarked) [Compound C-3390, Methyl 1-[[6-(dimethylamino)-5-formyl-2-naphthyl]sulfonyl]aziridine-2-carboxylate]: the IC50 was 18 ± 0.1 µM.

In the next data set the test system is MCF-7 (human breast adenocarcinoma, estrogen-positive). Nature of the data set: MTT antiproliferative assay, 48 h. Format: cell-based. The settings on record: 48-hour exposition. The method, then: as §1
Regarding `CN(C)c1ccc2c(S(=O)(=O)N3CC3C(N)=O)cccc2c1` (centres unmarked) [Compound C-3459, 1-[[6-(Dimethylamino)-1-naphthyl]sulfonyl]aziridine-2-carboxamide], the “Cytotoxicity, IC50, µM MCF-7” value is on record as “n.e”.

The data set is the same for the next values; noted with them: Homo sapiens, MCF7, 48-hour exposition, read-out: Cytotoxicity, IC50, µM MCF-7.
In the case of `NC(=O)C1CN1S(=O)(=O)c1ccc(N)cc1` (centres unmarked) [Compound C-3218, 1-(4-Aminophenyl)sulfonylaziridine-2-carboxamide], the IC50 was found to be 137 ± 14 µM.
Regarding `COC(=O)C1CN1S(=O)(=O)c1ccc(NC(C)=O)cc1` (centres unmarked) [Compound C-3308, Methyl 1-(4-acetamidophenyl)sulfonylaziridine-2-carboaylate], the IC50 came out at 485 ± 32 µM.
The same measure, in the same setting: to `Cc1ccc(S(=O)(=O)N2CC2C#N)cc1` (centres unmarked) [Compound C-3314, 1-(p-Tolylsulfonyl)aziridine-2-carbonitrile] belongs 206 ± 21 µM; to `COC(=O)C1CN1S(=O)(=O)c1ccco1` (centres unmarked) [Compound C-3346, Methyl 1-(2-furylsulfonyl)aziridine-2-carboxylate], 458 ± 6 µM.
Still for that read-out and setting: to `COC(=O)C1CN1S(=O)(=O)c1ccc2[nH]c(=O)ccc2c1` (centres unmarked) [Compound C-3350, Methyl 1-[(2-oxo-1H-quinolin-6-yl)sulfonyl]aziridine-2-carboxylate] belongs 80 ± 8 µM.
Same read-out and setting: the value for `COC(=O)C1CN1S(=O)(=O)c1ccc2oc(=O)ccc2c1` (centres unmarked) [Compound C-3355, Methyl 1-(2-oxochromen-6-yl)sulfonylaziridine-2-carboxylate] was 276 ± 9 µM; that for `COC(=O)C1CN1S(=O)(=O)c1ccc2c(C=O)c(N(C)C)ccc2c1` (centres unmarked) [Compound C-3390, Methyl 1-[[6-(dimethylamino)-5-formyl-2-naphthyl]sulfonyl]aziridine-2-carboxylate] was 20 ± 0.3 µM.

The next data set relates to HT-1080 (human fibrosarcoma). Nature of the data set: MTT antiproliferative assay, 48 h. Format: cell-based. The settings on record: 48-hour exposition, read-out: Cytotoxicity, IC50, µM HT-1080. The procedure: as §1
Turning to `NC(=O)C1CN1S(=O)(=O)c1ccc(N)cc1` (centres unmarked) [Compound C-3218, 1-(4-Aminophenyl)sulfonylaziridine-2-carboxamide], the IC50 was determined as 200 ± 3 µM.
The same measure, in the same setting: to `COC(=O)C1CN1S(=O)(=O)c1ccc(NC(C)=O)cc1` (centres unmarked) [Compound C-3308, Methyl 1-(4-acetamidophenyl)sulfonylaziridine-2-carboaylate] belongs 120 ± 6 µM.
Same read-out and setting: to `Cc1ccc(S(=O)(=O)N2CC2C#N)cc1` (centres unmarked) [Compound C-3314, 1-(p-Tolylsulfonyl)aziridine-2-carbonitrile] belongs 4.5 ± 1 µM.
Regarding `COC(=O)C1CN1S(=O)(=O)c1ccco1` (centres unmarked) [Compound C-3346, Methyl 1-(2-furylsulfonyl)aziridine-2-carboxylate], the concentration for half-maximal inhibition (IC50) came out at 169 ± 11 µM.
The same measure, in the same setting: the value for `COC(=O)C1CN1S(=O)(=O)c1ccc2[nH]c(=O)ccc2c1` (centres unmarked) [Compound C-3350, Methyl 1-[(2-oxo-1H-quinolin-6-yl)sulfonyl]aziridine-2-carboxylate] was 16 ± 5 µM; that for `COC(=O)C1CN1S(=O)(=O)c1ccc2oc(=O)ccc2c1` (centres unmarked) [Compound C-3355, Methyl 1-(2-oxochromen-6-yl)sulfonylaziridine-2-carboxylate] was 20 ± 1 µM.
Still for that read-out and setting: to `COC(=O)C1CN1S(=O)(=O)c1ccc2c(C=O)c(N(C)C)ccc2c1` (centres unmarked) [Compound C-3390, Methyl 1-[[6-(dimethylamino)-5-formyl-2-naphthyl]sulfonyl]aziridine-2-carboxylate] belongs 7.9 ± 0.9 µM; to `CN(C)c1ccc2c(S(=O)(=O)N3CC3C(N)=O)cccc2c1` (centres unmarked) [Compound C-3459, 1-[[6-(Dimethylamino)-1-naphthyl]sulfonyl]aziridine-2-carboxamide], greater than 500 µM.

A further data set has as its target T1, PDI A1 (Homo sapiens, UniProt P07237).
T1 construct: purchased Mybiosource; host or cells: E. coli
Put plainly: Insulin turbidometric assay, inhibition of PDI A1. Format: biochemical. The settings on record: insulin reduction, turbidity at 650 nm, 60 min incubation at 37° C.; read-out: Inhibition of PDI A1 (EC 50). The procedure:
The inhibitory effects compounds of invention on activity of PDI A1 was assess based on the insulin turbidometric assay. Enzymatic activity of PDIA1 was confirmed by measuring the turbidity increase at 650 nm due to insulin reduction. The assay mixture was prepared by addition 10 ug/ml PDIA1 (E.coli recombinant protein; Mybiosource), 0.1 mM phosphate buffer (pH7.6), 1 mM EDTA, 0.087 mM DTT and with or without tested compound and was incubated for 60 min, at 37° C. Reaction was started by addition insulin and DTT. Final concentration of insulin and DTT in assay mixture was 0.15 mM and 0.174 mM, respectively. Turbidity was detected at 650 nm against reference samples without PDI A1s. The measurements were performed at 650 nm using 120-s recordings.
Regarding `NC(=O)C1CN1S(=O)(=O)c1ccc(N)cc1` (centres unmarked) [Compound C-3218, 1-(4-Aminophenyl)sulfonylaziridine-2-carboxamide], the EC50 was greater than 200 µM.
The same measure, in the same setting: the value for `COC(=O)C1CN1S(=O)(=O)c1ccc(NC(C)=O)cc1` (centres unmarked) [Compound C-3308, Methyl 1-(4-acetamidophenyl)sulfonylaziridine-2-carboaylate] was 18 µM; that for `Cc1ccc(S(=O)(=O)N2CC2C#N)cc1` (centres unmarked) [Compound C-3314, 1-(p-Tolylsulfonyl)aziridine-2-carbonitrile] was 4.1 µM; that for `COC(=O)C1CN1S(=O)(=O)c1ccco1` (centres unmarked) [Compound C-3346, Methyl 1-(2-furylsulfonyl)aziridine-2-carboxylate] was greater than 200 µM.
The same measure, in the same setting: to `COC(=O)C1CN1S(=O)(=O)c1ccc2[nH]c(=O)ccc2c1` (centres unmarked) [Compound C-3350, Methyl 1-[(2-oxo-1H-quinolin-6-yl)sulfonyl]aziridine-2-carboxylate] belongs 5.5 µM; to `COC(=O)C1CN1S(=O)(=O)c1ccc2oc(=O)ccc2c1` (centres unmarked) [Compound C-3355, Methyl 1-(2-oxochromen-6-yl)sulfonylaziridine-2-carboxylate], 7.7 µM; to `COC(=O)C1CN1S(=O)(=O)c1ccc2c(C=O)c(N(C)C)ccc2c1` (centres unmarked) [Compound C-3390, Methyl 1-[[6-(dimethylamino)-5-formyl-2-naphthyl]sulfonyl]aziridine-2-carboxylate], 0.6 µM.
On the same count and under the same terms, to `CN(C)c1ccc2c(S(=O)(=O)N3CC3C(N)=O)cccc2c1` (centres unmarked) [Compound C-3459, 1-[[6-(Dimethylamino)-1-naphthyl]sulfonyl]aziridine-2-carboxamide] belongs 33 µM.

Test system in the next data set: not given
Assay: not given
Settings: not given
In turn, `NC(=O)C1CN1S(=O)(=O)c1ccc(N)cc1` (centres unmarked) [Compound C-3218, 1-(4-Aminophenyl)sulfonylaziridine-2-carboxamide] yielded a melting point of 139 to 141 °C.
`COC(=O)C1CN1S(=O)(=O)c1ccc2[nH]c(=O)ccc2c1` (centres unmarked) [Compound C-3350, Methyl 1-[(2-oxo-1H-quinolin-6-yl)sulfonyl]aziridine-2-carboxylate]: the melting point was in the range of 139 to 141 °C.
`COC(=O)C1CN1S(=O)(=O)c1ccc2oc(=O)ccc2c1` (centres unmarked) [Compound C-3355, Methyl 1-(2-oxochromen-6-yl)sulfonylaziridine-2-carboxylate]: the melting point was in the range of 42 to 44 °C.
Still for that read-out and setting: the value for `CN(C)c1ccc2c(S(=O)(=O)N3CC3C(N)=O)cccc2c1` (centres unmarked) [Compound C-3459, 1-[[6-(Dimethylamino)-1-naphthyl]sulfonyl]aziridine-2-carboxamide] was 197 to 199 °C.

One may read the IC50 as the concentration that inhibits the measured activity by half. By melting point is commonly meant the temperature, or range, at which the solid turns liquid.
